Measured values as given in patent EP0341019A2, “Polyether antibiotic” (priority 1988, dated 1989).
In brackets after ≈: the same amount, converted by molar mass.

Key:
[1] = system: Streptococcus pneumoniae Park 1; assay type: cell-based; settings: 24 h
[2] = system: Eimeria maxima Strain FS-410; experiment: anticoccidial feed test in infected chickens, ionophore-resistant strain; assay type: in vivo
Shigella sonnei = assay type: cell-based; settings: 24-hour incubation
Description: (§1) The formula 1 compounds (A82810 compounds) have antibacterial and anticoccidial activity. A82810 compounds are especially active against anaerobic bacteria. […]

Salmonella sp = assay type: cell-based; settings: 24-hour incubation
Description: as §1

[3] = system: Clostridium septicum 1128; assay type: cell-based; settings: 24-hour incubation
Description: as §1

[4] = system: Clostridium difficile 2994; assay type: cell-based; settings: Clostridioides difficile, 24-hour incubation
Description: as §1

[5] = system: Eimeria maxima Strain FS-177; experiment: anticoccidial feed test in infected chickens, ionophore-sensitive strain; assay type: in vivo
[6] = system: Enterobacter aerogenes C32; assay type: cell-based; settings: Klebsiella aerogenes, C32, 24 h
[7] = system: Pseudomonas aeruginosa X239; assay type: cell-based; settings: X239, 24 h
[8] = effect on growth of uninfected chicks; assay type: in vivo; settings: Table XXI, Compound ppm r3-r7: 0,8,10,12,14
Description: Newly hatched chickens are raised in a coccidial-free environment for a seven-day period. On the morning of the eighth day, the chickens are weighed and assigned to treatment groups.
Each group of chicks (usually 4 or 5 chicks per group) is housed in a battery cage during the experiment. A constant lighting schedule and ad libitum access to feed (each experiment contains non-medicated and drug-medicated treatments) and water are provided for the chicks in each battery. Two days after the experiment is initiated, chicks that are designated to be infected are crop-intubated with a pure suspension of coccidial oocysts. The oocyst dosage used in each test is designed to produce clinical coccidiosis in infected nonmedicated animals.
After an additional seven-day growth period, the experiment is terminated. Each group of chicks is weighed, and the amount of feed consumed by each group is determined. From these measurements, final bird weights and efficiency of feed utilization are calculated. All birds are then sacrificed, and the intestine. and cecum are examined for the presence of coccidial-induced lesions.

[9] = system: E. acervulina Strain FS-316; experiment: anticoccidial feed test in infected chickens, ionophore-resistant strain; assay type: in vivo
Bacteroides fragilis 111 = assay type: cell-based; settings: Bacteroides fragilis, 111, 24 h
Escherichia coli TEM = assay type: cell-based; settings: 24 h
[10] = system: Herpes simplex viruses (HSV II); experiment: antiviral tissue-culture test; assay type: cell-based, Herpes simplex virus
[11] = system: Staphylococcus epidermidis 270; assay type: cell-based; settings: Staphylococcus epidermidis, 270, 24 h
[12] = system: Bacteroides fragilis 1936B; assay type: cell-based; settings: 24 h
Brazil influenza virus = assay type: cell-based; settings: tissue culture
[13] = system: Fusobacterium symbiosum 1470; assay type: cell-based; settings: Fusobacterium, 1470, 24 h
[14] = system: Eimeria acervulina Strain 59 And E. tenella Strain 155; experiment: anticoccidial feed test in infected chickens, ionophore-sensitive strains; assay type: in vivo
[15] = system: Pseudomonas aeruginosa PS72; assay type: cell-based; settings: PS72, 24 h
[16] = system: Bacteroides fragilis 1877; assay type: cell-based; settings: Bacteroides fragilis, 1877, 24 h
[17] = system: Staphylococcus aureus X1.1; assay type: cell-based; settings: X1.1, 24 h
[18] = system: Haemophilus influenzae 76; assay type: cell-based; settings: Haemophilus influenzae, 76, 24 h
Proteus sp. = assay type: cell-based; settings: 24 h
[19] = system: Streptococcus faecium X66; assay type: cell-based; settings: Enterococcus faecium, X66, 24 h
[20] = system: Bacteroides melaninogenicus 2736; assay type: cell-based; settings: 2736, 24 h
[21] = system: Clostridium perfringens 81; experiment: microbe, parasite or virus in culture; assay type: cell-based; settings: Clostridium perfringens, 81, 24 h
[22] = system: Peptostreptococcus anaerobius 1451; assay type: cell-based; settings: Peptostreptococcus anaerobius, 1451, 24 h
[23] = system: Pseudomonas aeruginosa X528; assay type: cell-based; settings: X528, 24 h

## CC[C@@H](O)[C@]1(C)C[C@H](C)[C@@](O)([C@H]2C[C@H](C)[C@H]([C@]3(C)C[C@@H](O[C@H]4CC[C@H](OC)[C@@H](C)O4)[C@H]([C@]4(C)CC[C@@]5(O[C@H]([C@@H](C)[C@@H](OC)[C@H](C)C(=O)O)[C@H](C)[C@@H](OC)[C@H]5C)O4)O3)O2)O1 [Example A82810]
[1]
  MIC: 1 µg/mL (≈ 1.19 µM)
[2]; 1.25 ppm
  AVERAGE INTESTINAL LESION SCORES: 4.0
  WEIGHT GAIN, PERCENT OF CONTROL: 93% OF CONTROL
[2]; 1.5 ppm
  AVERAGE INTESTINAL LESION SCORES: 3.3
  INTESTINAL LESION SCORE: 4.0
[2]; 1.75 ppm
  AVERAGE INTESTINAL LESION SCORES: 3.8
  WEIGHT GAIN, PERCENT OF CONTROL: 91% OF CONTROL
[2]; 2 ppm
  INTESTINAL LESION SCORE: 4.0
  LESION SCORE: 2.3
  PERCENT REDUCTION IN OOCYST PRODUCTION: 18%
[2]; 2.5 ppm
  AVERAGE INTESTINAL LESION SCORES: 3.8
  WEIGHT GAIN, PERCENT OF CONTROL: 90% OF CONTROL
[2]; 3 ppm
  AVERAGE INTESTINAL LESION SCORES: 3.1
  WEIGHT GAIN, PERCENT OF CONTROL: 88% OF CONTROL
[2]; 3.5 ppm
  AVERAGE INTESTINAL LESION SCORES: 3.5
  WEIGHT GAIN, PERCENT OF CONTROL: 88% OF CONTROL
[2]; 5 ppm
  AVERAGE INTESTINAL LESION SCORES: 4.0
  WEIGHT GAIN, PERCENT OF CONTROL: 74% OF CONTROL
[2]; 6 ppm
  AVERAGE INTESTINAL LESION SCORES: 4.0
  LESION SCORE: 2.7
  PERCENT REDUCTION IN OOCYST PRODUCTION: 18%
[2]; 10 ppm
  LESION SCORE: 2.4
  PERCENT REDUCTION IN OOCYST PRODUCTION: 36%
  WEIGHT GAIN, PERCENT OF CONTROL: 88% OF CONTROL
Shigella sonnei
  MIC: 2 µg/mL (≈ 2.37 µM)
Salmonella sp
  MIC: > 128 µg/mL
[3]
  MIC: 0.5 µg/mL (≈ 0.593 µM)
[4]
  MIC: 0.5 µg/mL (≈ 0.593 µM)
[5]; 2 ppm
  AVERAGE INTESTINAL LESION SCORES: 1.9
[5]; 6 ppm
  AVERAGE INTESTINAL LESION SCORES: 0.6
  WEIGHT GAIN, PERCENT OF CONTROL: 108% OF CONTROL
[5]; 10 ppm
  AVERAGE INTESTINAL LESION SCORES: 0.2
  WEIGHT GAIN, PERCENT OF CONTROL: 102% OF CONTROL
[6]
  MIC: 8 µg/mL (≈ 9.49 µM)
[7]
  MIC: 0.25 µg/mL (≈ 0.297 µM)
[8]; A82810 1.25 ppm
  WEIGHT GAIN, PERCENT OF CONTROL: 98% OF CONTROL
[8]; A82810 1.5 ppm
  WEIGHT GAIN, PERCENT OF CONTROL: 101% OF CONTROL
[8]; A82810 1.75 ppm
  WEIGHT GAIN, PERCENT OF CONTROL: 105% OF CONTROL
[8]; A82810 2.0 ppm
  WEIGHT GAIN, PERCENT OF CONTROL: 99% OF CONTROL
[9]; 0.5 ppm
  AVERAGE INTESTINAL LESION SCORES: 7.3
  WEIGHT GAIN, PERCENT OF CONTROL: 72% OF CONTROL
[9]; 1 ppm
  AVERAGE INTESTINAL LESION SCORES: 7.8
  WEIGHT GAIN, PERCENT OF CONTROL: 73% OF CONTROL
[9]; 1.5 ppm
  AVERAGE INTESTINAL LESION SCORES: 7.9
  WEIGHT GAIN, PERCENT OF CONTROL: 73% OF CONTROL
[9]; 2 ppm
  AVERAGE INTESTINAL LESION SCORES: 8.8
  WEIGHT GAIN, PERCENT OF CONTROL: 76% OF CONTROL
Bacteroides fragilis 111
  MIC: 8 µg/mL (≈ 9.49 µM)
Escherichia coli TEM
  MIC: > 128 µg/mL
[10]
  active at levels as low as: 1.56 µg/mL
[11]
  MIC: 1 µg/mL (≈ 1.19 µM)
[12]
  MIC: 8 µg/mL (≈ 9.49 µM)
Brazil influenza virus
  active at a level of: 250 µg/mL
[13]
  MIC: 0.5 µg/mL (≈ 0.593 µM)
[14]; 0.5 ppm
  TOTAL LESION SCORE: 12.1
  WEIGHT GAIN, PERCENT OF CONTROL: 60% OF CONTROL
[14]; 1 ppm
  TOTAL LESION SCORE: 10.7
  WEIGHT GAIN, PERCENT OF CONTROL: 81% OF CONTROL
[14]; 1.25 ppm
  AVERAGE CECAL LESION SCORES: 3.2
  AVERAGE INTESTINAL LESION SCORES: 6.0
  WEIGHT GAIN, PERCENT OF CONTROL: 87% OF CONTROL
[14]; 1.5 ppm
  AVERAGE CECAL LESION SCORES: 2.6
  AVERAGE INTESTINAL LESION SCORES: 3.6
[14]; 1.75 ppm
  AVERAGE CECAL LESION SCORES: 2.0
  AVERAGE INTESTINAL LESION SCORES: 2.3
  WEIGHT GAIN, PERCENT OF CONTROL: 82% OF CONTROL
[15]
  MIC: 0.25 µg/mL (≈ 0.297 µM)
[16]
  MIC: 8 µg/mL (≈ 9.49 µM)
[17]
  MIC: 1 µg/mL (≈ 1.19 µM)
[18]
  MIC: 64 µg/mL (≈ 75.9 µM)
Proteus sp.
  MIC: > 128 µg/mL
[19]
  MIC: 1 µg/mL (≈ 1.19 µM)
[20]
  MIC: 8 µg/mL (≈ 9.49 µM)
[21]
  MIC: 0.5 µg/mL (≈ 0.593 µM)
[22]
  MIC: ≤ 0.25 µg/mL
[23]
  MIC: 2 µg/mL (≈ 2.37 µM)
